In patent EP4129284B1, “SERTACONAZOL FOR PROVIDING A SPORISTATIC AND/OR SPORICIDAL EFFECT” (Dr. Pfleger Arzneimittel GmbH, priority 2021, dated 2023):
Converted amounts (≈) assume the structure as drawn.

Legend:
Experiment in all cases: Microtiter plate laser nephelometry (MLN) growth test
Format in all cases: cell-based
[1] = system: Epidermophyton floccosum; conditions: E. floccosum; for MIC: plating of wells without visible growth in the MLN-test; for IC50: spore suspension in SGB, 37 °C, 120 h, growth as area under curve vs untreated control
Procedure: (§1) To allow a reasonable comparison between antimycotic drugs, the concentrations to be used in the following tests was determined first. Thus, the antimycotic effect was determined by microtiter plate laser nephelometry (MLN).
(§2) MLN is a direct method for measuring light, which is scattered by particles suspended in a solution in angles of up to 90 degree. With this technique, already minor particle concentrations can be determined in a suspension. Thus, this method provides a higher sensitivity than usual transmission readers, which detect the reduction of the intensity of light passing a suspension. Further, it is a very reliable technique for application in a 96-well format. It can be used to monitor the growth of microorganisms by the turbidity of the respective medium and to examine the effect of antimicrobial substances on the growth of microorganisms. Compared to other applied methods, MLN allows high throughput screenings, incubation over a long time and in situ monitoring of changes in the dose-response-curves.
(§3) Moreover, in most techniques, the minimum inhibitory concentration (MIC) can only be determined afterwards, whereas MLN allows the in situ acquisition of dose-response-curves and the simultaneous monitoring of changes in the IC50.
(§4) Candida albicans DSM 1386, Candida parapsilosis DSM 5784, Trichophyton rubrum DSM 16111,Trichophyton interdigitale IHEM 22939, Trichophyton soudanense DSM 103786, and Trichophyton mentagrophytes DSM 107608 were obtained from the DSMZ (German Collection of Microorganisms and Cell Cultures; Deutsche Sammlung von Mikroorganismen und Zellkulturen). Epidermophyton floccosum and Scorpolariopsis brevicaulis were obtained from a round robin test.
(§5) The yeasts were cultivated in Sabouraud-Glucose-Bouillon (SGB; Merck) for 24 h at 37°C at aerobic conditions. Dermatophytes were cultivated on Dermasel-Agarplates (Oxoid) for 3 weeks and subsequently treated with 5 mL sterile, physiological saline solution (Lot 14HD24, Fresenius Kabi Deutschland GmbH) for detaching the spores. The spore suspensions were transferred into sterile 50-ml-tubes (Greiner Bio-One), vortexed for 20 s and separated by cell sieves (40 µm, Greiner Bio-One). Subsequently, the spore number was determined via Neubauer-improved counting chambers and the spore suspension was adjusted to approximately 2 × 10^3/ml in SBG (Merck) for the MLN-experiments.
(§6) Solutions of sertaconazol, ciclopiroxolamin and terbinafin were prepared as 10 µg/µL DMSO (Sigma-Aldrich). The respective test concentrations were then obtained by diluting these solutions in SGB (Merck).
(§7) The MLN-test was then performed according to NCCLS M27-A2 and DIN EN 27027 as previously described (Burmester A, Hipler UC, Uhrlaß S, Nenoff P, Singal A, Verma SB, Elsner P, Wiegand C. Indian Trichophyton mentagrophytes squalene epoxidase erg1 double mutants show high proportion of combined fluconazole and terbinafine resistance. Mycoses. 2020; doi: 10.111 1/myc.13150). […] of the respective dilutions of sertaconazol, ciclopiroxolamin or terbinafin were added to the respective wells of a sterile, clear 96-well microplate (Greiner Bio-One) in quadruplicates together with 100 µL of the microorganism suspensions (as above). Blanks for each analysed substance concentration were added to each assay. The microtiter plates were sealed with a transparent foil (Greiner Bio-One). To allow the gas exchange, a perforation was applied to the right edge of the respective wells. The microtiter plates were then inserted in the microtiter plate laser nephelometer (NEPH-ELOstar Galaxy, BMG Labtech) and incubated at 37 °C while shaking for 48 h (yeasts) or, respectively, 120 h (mold, dermatophytes). For determining the growth of the microorganisms, the turbidity of each analysed substrate concentration was assigned to the incubation time. Subsequently, the area under curve was determined by the results and calculated as percentage of the untreated control (growth [%]). […]

[2] = system: Trichophyton rubrum DSM 16111; conditions: DSM16111, T. rubrum; for MIC: plating of wells without visible growth in the MLN-test; for IC50: spore suspension in SGB, 37 °C, 120 h, growth as area under curve vs untreated control
Procedure: as §1, §2, §3, §4, §5, §6, §7

[3] = system: Candida albicans DSM 1386; conditions: for IC50: DSM1386, C. albicans (yeast), SGB, 37 °C, 48 h, growth as area under curve vs untreated control; for MIC: DSM1386, C. albicans, plating of wells without visible growth in the MLN-test
Procedure: as §1, §2, §3, §4, §5, §6, §7

[4] = system: Trichophyton interdigitale IHEM 22939; conditions: IHEM22939, T. interdigitale; for MIC: plating of wells without visible growth in the MLN-test; for IC50: spore suspension in SGB, 37 °C, 120 h, growth as area under curve vs untreated control
Procedure: as §1, §2, §3, §4, §5, §6, §7

[5] = system: Trichophyton soudanense DSM 103786; conditions: DSM103786, T. soudanense; for MIC: plating of wells without visible growth in the MLN-test; for IC50: spore suspension in SGB, 37 °C, 120 h, growth as area under curve vs untreated control
Procedure: as §1, §2, §3, §4, §5, §6, §7

[6] = system: Trichophyton mentagrophytes DSM 107608; conditions: DSM107608, T. mentagrophytes; for MIC: plating of wells without visible growth in the MLN-test; for IC50: spore suspension in SGB, 37 °C, 120 h, growth as area under curve vs untreated control
Procedure: as §1, §2, §3, §4, §5, §6, §7

[7] = system: S. brevicaulis; conditions: Scopulariopsis brevicaulis; for IC50: S. brevicaulis (mold), SGB, 37 °C, 120 h, growth as area under curve vs untreated control; for MIC: S. brevicaulis, plating of wells without visible growth in the MLN-test
Procedure: as §1, §2, §3, §4, §5, §6, §7

[8] = system: Candida parapsilosis DSM 5784; conditions: Lodderomyces parapsilosis, DSM5784; for IC50: C. parapsilosis (yeast), SGB, 37 °C, 48 h, growth as area under curve vs untreated control; for MIC: C. parapsilosis, plating of wells without visible growth in the MLN-test
Procedure: as §1, §2, §3, §4, §5, §6, §7

| MIC [1] | IC50 [1] | MIC [2] | IC50 [2] | IC50 [3] | MIC [3] | MIC [4] | IC50 [4] | MIC [5] | IC50 [5] | MIC [6] | IC50 [6] | IC50 [7] | MIC [7] | IC50 [8] | MIC [8] | SMILES |
| --- | --- | --- | --- | --- | --- | --- | --- | --- | --- | --- | --- | --- | --- | --- | --- | --- |
| 7.5 µg/mL (≈ 36.2 µM) | 1.46 ± 0.22 µg/mL (≈ 7.04 µM) | 10 µg/mL (≈ 48.2 µM) | 1020 ± 220 ng/mL (≈ 4.92 µM) | 4.01 ± 0.71 µg/mL (≈ 19.3 µM) | 40 µg/mL (≈ 193 µM) | 10 µg/mL (≈ 48.2 µM) | 2.62 ± 0.62 µg/mL (≈ 12.6 µM) | 5.5 µg/mL (≈ 26.5 µM) | 1430 ± 780 ng/mL (≈ 6.9 µM) | 10 µg/mL (≈ 48.2 µM) | 2.09 ± 0.78 µg/mL (≈ 10.1 µM) | 4.85 ± 1.79 µg/mL (≈ 23.4 µM) | 60 µg/mL (≈ 289 µM) | 4.73 ± 0.09 µg/mL (≈ 22.8 µM) | 80 µg/mL (≈ 386 µM) | Cc1cc(C2CCCCC2)n(O)c(=O)c1 [Ciclopiroxolamin, ciclopiroxolamin] |
| 1.6 µg/mL (≈ 3.65 µM) | 0.022 ± 0.003 µg/mL (≈ 0.0503 µM) | 1.3 µg/mL (≈ 2.97 µM) | 2.8 ± 0.3 ng/mL (≈ 0.0064 µM) | 0.54 ± 0.12 µg/mL (≈ 1.23 µM) | 40 µg/mL (≈ 91.4 µM) | 12.5 µg/mL (≈ 28.6 µM) | 0.39 ± 0.01 µg/mL (≈ 0.891 µM) | 3.1 µg/mL (≈ 7.08 µM) | 1.4 ± 0.1 ng/mL (≈ 0.0032 µM) | 3.8 µg/mL (≈ 8.68 µM) | 0.018 ± 0.003 µg/mL (≈ 0.0411 µM) | 0.11 ± 0.03 µg/mL (≈ 0.251 µM) | 7.5 µg/mL (≈ 17.1 µM) | 0.0025 ± 0.0001 µg/mL (≈ 0.00571 µM) | 20 µg/mL (≈ 45.7 µM) | Clc1ccc(C(Cn2ccnc2)OCc2csc3c(Cl)cccc23)c(Cl)c1 (centres unmarked) [Sertaconazol, sertaconazol] |
| 0.02 µg/mL (≈ 0.0686 µM) | 0.0021 ± 0.0001 µg/mL (≈ 0.00721 µM) | 0.006 µg/mL (≈ 0.0206 µM) | 1.5 ± 0.2 ng/mL (≈ 0.00515 µM) | 24.2 ± 2.99 µg/mL (≈ 82.9 µM) | – | 0.02 µg/mL (≈ 0.0686 µM) | 0.0038 ± 0.0008 µg/mL (≈ 0.013 µM) | 0.015 µg/mL (≈ 0.0515 µM) | 1.6 ± 0.5 ng/mL (≈ 0.00549 µM) | 20 µg/mL (≈ 68.6 µM) | 4.66 ± 0.04 µg/mL (≈ 16 µM) | 0.69 ± 0.03 µg/mL (≈ 2.37 µM) | 40 µg/mL (≈ 137 µM) | 0.098 ± 0.002 µg/mL (≈ 0.336 µM) | 3.8 µg/mL (≈ 13 µM) | CN(C/C=C/C#CC(C)(C)C)Cc1cccc2ccccc12 [Terbinafin, terbinafin] |
